Source: patent publication US20170190671A1, “BIS(ARYL)CATECHOL DERIVATIVES AS HERBICIDES” (E I DU PONT DE NEMOURS AND COMPANY, priority 2014, published 2017)

How the values were obtained:
Assay in all cases: Test C postemergence
Assay type in all cases: in vivo
kochia (Kochia scoparia) = conditions: Bassia scoparia, post-emergence, Postemergence, scale 0 to 100, read-out: Plant response rating, Kochia
[1] = test system: barnyardgrass (Echinochloa crus-galli); conditions: Echinochloa crus-galli, post-emergence, Postemergence, scale 0 to 100, read-out: Plant response rating, Barnyardgrass
[2] = test system: velvetleaf (Abutilon theophrasti); conditions: Abutilon theophrasti, post-emergence, Postemergence, scale 0 to 100, read-out: Plant response rating, Velvetleaf
[3] = test system: large (Lg) crabgrass (Digitaria sanguinalis); conditions: Digitaria sanguinalis, post-emergence, 336 h, Postemergence, scale 0 to 100, read-out: Plant response rating, Crabgrass, Large
[4] = test system: giant foxtail (Setaria faberii); conditions: Setaria faberi, post-emergence, 336 h, Postemergence, scale 0 to 100, read-out: Plant response rating, Foxtail, Giant
[5] = test system: galium (catchweed bedstraw, Galium aparine); conditions: Galium, post-emergence, 336 h, Postemergence, scale 0 to 100, read-out: Plant response rating, Galium
[6] = test system: blackgrass (Alopecurus myosuroides); conditions: Alopecurus myosuroides, post-emergence, 336 h, Postemergence, scale 0 to 100, read-out: Plant response rating, Blackgrass
corn (Zea mays) = conditions: Zea mays, post-emergence, 336 h, Postemergence, scale 0 to 100
[7] = test system: lambsquarters (Chenopodium album); conditions: Chenopodium album, post-emergence, 336 h, Postemergence, scale 0 to 100, read-out: Plant response rating, Lambsquarters
soybean (Glycine max) = conditions: Glycine max, post-emergence, Postemergence, scale 0 to 100, read-out: Plant response rating, Soybean
[8] = test system: chickweed (common chickweed, Stellaria media); conditions: Stellaria media, post-emergence, Postemergence, scale 0 to 100, read-out: Plant response rating, Chickweed
[9] = test system: yellow nutsedge (Cyperus esculentus); conditions: Cyperus, post-emergence, 336 h, Postemergence, scale 0 to 100, read-out: Plant response rating, Nutsedge, Yellow
wild oat (Avena fatua) = conditions: Avena fatua, post-emergence, Postemergence, scale 0 to 100, read-out: Plant response rating, Oat, Wild
[10] = test system: morningglory (Ipomoea coccinea); conditions: Ipomoea, post-emergence, 336 h, Postemergence, scale 0 to 100, read-out: Plant response rating, Morningglory
[11] = test system: johnsongrass (Sorghum halepense); conditions: Sorghum halepense, post-emergence, 336 h, Postemergence, scale 0 to 100, read-out: Plant response rating, Johnsongrass
[12] = test system: Italian ryegrass (Lolium multiflorum); conditions: Lolium multiflorum, post-emergence, 336 h, Postemergence, scale 0 to 100, read-out: Plant response rating, Ryegrass, Italian
[13] = test system: oilseed rape (Brassica napus); conditions: Brassica napus, post-emergence, Postemergence, scale 0 to 100, read-out: Plant response rating, Oilseed Rape
[14] = test system: ragweed (common ragweed, Ambrosia elatior); conditions: Ambrosia artemisiifolia, post-emergence, 336 h, Postemergence, scale 0 to 100, read-out: Plant response rating, Ragweed
[15] = test system: winter wheat (Triticum aestivum); conditions: Triticum aestivum, post-emergence, 336 h, Postemergence, scale 0 to 100, read-out: Plant response rating, Wheat

Q: Which results are given for `N#Cc1cccc(Oc2ncc(Cl)cn2)c1Oc1ccc(Cl)cn1` [Compound 16, 2-[(5-chloro-2-pyridinyl)oxy]-3-[(5-chloro-2-pyrimidinyl)oxy]benzonitrile]?
A: pest or weed control at 16 g/ha (kochia (Kochia scoparia); 16 g ai/ha): 90%; pest or weed control at 31 g/ha (kochia (Kochia scoparia); 31 g ai/ha): 90%; pest or weed control at 62 g/ha (kochia (Kochia scoparia); 62 g ai/ha): 90%; pest or weed control at 125 g/ha (kochia (Kochia scoparia); 125 g ai/ha): 95%; pest or weed control at 16 g/ha ([1]; 16 g ai/ha): 10%; pest or weed control at 31 g/ha ([1]; 31 g ai/ha): 15%; pest or weed control at 62 g/ha ([1]; 62 g ai/ha): 15%; pest or weed control at 125 g/ha ([1]; 125 g ai/ha): 20%; pest or weed control at 31 g/ha ([2]; 31 g ai/ha): 65%; pest or weed control at 62 g/ha ([2]; 62 g ai/ha): 60%; pest or weed control at 125 g/ha ([2]; 125 g ai/ha): 70%; pest or weed control at 16 g/ha ([3]; 16 g ai/ha): 10%; pest or weed control at 31 g/ha ([3]; 31 g ai/ha): 15%; pest or weed control at 62 g/ha ([3]; 62 g ai/ha): 15%; pest or weed control at 125 g/ha ([3]; 125 g ai/ha): 20%; pest or weed control at 16 g/ha ([4]; 16 g ai/ha): 10%; pest or weed control at 31 g/ha ([4]; 31 g ai/ha): 15%; pest or weed control at 62 g/ha ([4]; 62 g ai/ha): 20%; pest or weed control at 125 g/ha ([4]; 125 g ai/ha): 35%; pest or weed control at 16 g/ha ([5]; 16 g ai/ha): 60%; pest or weed control at 31 g/ha ([5]; 31 g ai/ha): 70%; pest or weed control at 62 g/ha ([5]; 62 g ai/ha): 70%; pest or weed control at 125 g/ha ([5]; 125 g ai/ha): 95%; pest or weed control at 16 g/ha ([6]; 16 g ai/ha): 5%; pest or weed control at 31 g/ha ([6]; 31 g ai/ha): 5%; pest or weed control at 62 g/ha ([6]; 62 g ai/ha): 5%; pest or weed control at 125 g/ha ([6]; 125 g ai/ha): 10%; Corn plant response rating (crop injury, 0 = no effect, 100 = complete kill) at 16 g/ha (corn (Zea mays); 16 g ai/ha): 10%; Corn plant response rating (crop injury, 0 = no effect, 100 = complete kill) at 31 g/ha (corn (Zea mays); 31 g ai/ha): 20%; Corn plant response rating (crop injury, 0 = no effect, 100 = complete kill) at 62 g/ha (corn (Zea mays); 62 g ai/ha): 10%; Corn plant response rating (crop injury, 0 = no effect, 100 = complete kill) at 125 g/ha (corn (Zea mays); 125 g ai/ha): 15%; pest or weed control at 16 g/ha ([7]; 16 g ai/ha): 65%; pest or weed control at 31 g/ha ([7]; 31 g ai/ha): 80%; pest or weed control at 62 g/ha ([7]; 62 g ai/ha): 75%; pest or weed control at 125 g/ha ([7]; 125 g ai/ha): 90%; plant injury at 31 g/ha (soybean (Glycine max); 31 g ai/ha): 70%; plant injury at 62 g/ha (soybean (Glycine max); 62 g ai/ha): 45%; plant injury at 125 g/ha (soybean (Glycine max); 125 g ai/ha): 55%; pest or weed control at 16 g/ha ([8]; 16 g ai/ha): 25%; pest or weed control at 31 g/ha ([8]; 31 g ai/ha): 60%; pest or weed control at 62 g/ha ([8]; 62 g ai/ha): 80%; pest or weed control at 125 g/ha ([8]; 125 g ai/ha): 80%; pest or weed control at 31 g/ha ([9]; 31 g ai/ha): 10%; pest or weed control at 62 g/ha ([9]; 62 g ai/ha): 10%; pest or weed control at 125 g/ha ([9]; 125 g ai/ha): 15%; pest or weed control at 31 g/ha (wild oat (Avena fatua); 31 g ai/ha): 10%; pest or weed control at 62 g/ha (wild oat (Avena fatua); 62 g ai/ha): 5%; pest or weed control at 125 g/ha (wild oat (Avena fatua); 125 g ai/ha): 5%; pest or weed control at 31 g/ha ([10]; 31 g ai/ha): 90%; pest or weed control at 62 g/ha ([10]; 62 g ai/ha): 90%; pest or weed control at 125 g/ha ([10]; 125 g ai/ha): 95%; pest or weed control at 16 g/ha ([11]; 16 g ai/ha): 5%; pest or weed control at 31 g/ha ([11]; 31 g ai/ha): 5%; pest or weed control at 62 g/ha ([11]; 62 g ai/ha): 10%; pest or weed control at 125 g/ha ([11]; 125 g ai/ha): 10%; pest or weed control at 31 g/ha ([12]; 31 g ai/ha): 10%; pest or weed control at 62 g/ha ([12]; 62 g ai/ha): 5%; pest or weed control at 125 g/ha ([12]; 125 g ai/ha): 15%; plant injury at 31 g/ha ([13]; 31 g ai/ha): 70%; plant injury at 62 g/ha ([13]; 62 g ai/ha): 80%; plant injury at 125 g/ha ([13]; 125 g ai/ha): 50%; pest or weed control at 31 g/ha ([14]; 31 g ai/ha): 60%; pest or weed control at 62 g/ha ([14]; 62 g ai/ha): 50%; pest or weed control at 125 g/ha ([14]; 125 g ai/ha): 70%; plant injury at 31 g/ha ([15]; 31 g ai/ha): 0%; plant injury at 62 g/ha ([15]; 62 g ai/ha): 5%; plant injury at 125 g/ha ([15]; 125 g ai/ha): 0%
